According to article PMC4010398, “A Phase I Clinical Trial of Systemically Delivered NEMO Binding Domain Peptide in Dogs with Spontaneous Activated B-Cell like Diffuse Large B-Cell Lymphoma” (PLoS ONE, 2014):
“Also recorded” adds a separate entry of the source.

Assays:
[1] = Plasma pharmacokinetics after intravenous infusion (mass spectrometry)
Protocol: In this phase I dose escalation clinical trial, both treatment-naïve and relapsed dogs were enrolled. NBD peptide was administered according to a standard 3+3 trial design. The dose endpoint was the dose at which canonical NF-κB signaling was inhibited within malignant lymph nodes. Peptide was reconstituted to 50 mM in sterile DMSO and diluted in 20 mls of lactated Ringers solution immediately prior to intravenous administration at a constant rate of 20 ml/hr. Twenty-four hours post NBD peptide administration, excisional or Tru-cut biopsies of a peripheral malignant lymph node were taken for Western blot, qRT-PCR and histopathological analysis.
EDTA anti-coagulated blood samples were taken at 0, 30, 60, 90, 120, 240, 360 mins and 24 hours post infusion. Plasma was separated by centrifugation and stored at −80°C prior to pharmacokinetic analysis. Mass spectrometer analysis of NBD peptide in plasma samples was performed by Frontage Laboratories, Exton, PA and pharmacokinetic (PK) parameters were determined using WinNonlin v5.2 software. The lower limit of quantification (LLOQ) was set to 10 ng/ml however, in some instances the LLOQ was changed to 20 ng/ml because of potential interference in the samples.

[2] = test system: rats, mice and piglets; conditions: doses ranging from 0.75 mg/kg to 20 mg/kg; cited from earlier work
Excerpt: In this study, as a consequence of dru ...

[3] = test system: malignant lymph nodes; assay: TUNEL staining of malignant lymph node biopsies; format: in vivo, dog; conditions: 24 hours post peptide vs pre; tissue available from 9 dogs
Protocol: (§1) Immunohistochemical analysis was performed on 5 micron sections of formalin fixed paraffin embedded lymph node tissue from dogs with spontaneous DLBCL using a DAKO automatic universal staining system. Sections were heated in a 60°C oven for 1 hour, depararaffinized in PRO PAR clearant and rehydrated in progressively decreasing grades of ethanol. Antigen retrieval was performed by boiling sections in sodium citrate buffer, pH ∼9.0 for 15 minutes. Endogenous peroxidase was blocked with 3% hydrogen peroxide. For Ki67 staining, a 1∶50 dilution of a monoclonal mouse anti-human antibody (Clone MIB-1, DAKO) was used and immunodetection was performed using a biotinylated goat anti-rabbit/anti-mouse immunoglobulin and SA-HRP (LSAB2 kit, DAKO, Carpinteria, CA). For IRF-4 staining, a 1∶200 dilution of a polyclonal mouse anti human antibody (DAKO, M7259) was used and immunodetection was performed using a peroxidase polymer conjugated anti-mouse secondary antibody system (ImmPRESS Anti-mouse Ig peroxidase polymer detection kit). In all cases, antibody binding was detected using 3,3′-diaminobenzidine solution and tissues were counterstained with hematoxylin. Slides were viewed using a Nikon E600 infinity corrected upright microscope. […] Apoptotic cells were detected using the cell death detection kit (Roche, Indianapolis, IA) following the manufacturer's instructions. […]

[4] = test system: constitutive canonical NF-κB signaling (phospho-IKKα/β:IKKβ); assay: Immunoblot and densitometry of phospho-IKK in malignant lymph node biopsies, pre and 24 h post peptide; format: in vivo, dog; conditions: malignant lymph node biopsy 24 hours after single 1 h i.v. infusion, 0.5-2 mg/kg, vs pre-treatment; paired samples from ten of eleven dogs
Protocol: Lymph node biopsy samples were mechanically dissociated in RPMI and red blood cells were removed using ACK lysis buffer (Gibco) according to manufacturer's instructions. Cells were lysed in 50 mM Tris-HCL containing 1% NP-40, 150 mM NaCl, 2.5 mM EDTA, 5% glycerol, a 1∶50 dilution of Protease Inhibitor Cocktail and 1∶50 dilutions of Phosphatase Inhibitor Cocktails 2 and 3 (Sigma-Aldrich, Saint Louis, MO). Samples were centrifuged and protein concentrations were determined by micro BCA assay (Thermo Scientific, Rockford, IL). Proteins from whole cell extracts were separated by SDS-PAGE (10%) followed by transfer to PVDF membrane. Membranes were probed with polyclonal rabbit anti-human antibodies against phospho-IKKα/β (16A6), IKKβ (L570), phospho-IκBα (14D4), mouse anti-human IκBα (L35A5) and β-actin (4967) (Cell Signaling, Danvers, MA). An HRP-conjugated donkey anti-rabbit or anti-mouse IgG was used as the secondary detection antibody (Amersham, Piscataway, NJ). Blots were developed using ECL Plus (Amersham, Piscataway, NJ). Densitometry was performed using ImageJ software and integrated density values for each band were obtained using the Analyze Particles function.

[5] = test system: Ki67; assay: Ki67 immunohistochemistry of malignant lymph node biopsies; format: in vivo, dog; conditions: 24 hours post peptide vs pre; 10 high power fields
Protocol: as §1

[6] = test system: Cyclin D1; assay: qRT-PCR of Cyclin D1 in malignant lymph node biopsies; format: in vivo, dog; conditions: 24 hour post-peptide biopsy normalized to pre-treatment; β-actin control, triplicate
Protocol: (§2) Lymph node biopsies were immediately placed in RNAlater (Ambion, Austin, TX) and stored at –80°C prior to RNA extraction. Total RNA extraction was performed using the RNeasy Mini Kit (Qiagen, Valencia, CA). Reverse transcription was performed using random hexamers and Superscript II reverse transcriptase (Invitrogen Corp., Carlsbad. CA, USA) according to the manufacturer's instructions. Primer sequences for canine A1, A20, Bcl-XL, c-FLIP, Cyclin D1, Bcl-2, XIAP and β-actin have been previously described, [35]. Primers were synthesized by Invitrogen Corp. Real-time PCR assays were performed using SYBR Green (Fermentas, Glen Burnie, Maryland). Samples were run in triplicate using standard conditions on an ABI 7500 sequence detector (Applied Biosystems, Carlsbad, CA) and data were analyzed using β-actin as an endogenous control. Dissociation curves were performed after each experiment to confirm the specificity of product amplification. Statistical analysis was performed using a two-tailed Student's ‘t’ test where statistical significance = p<0.05.

[7] = test system: malignant lymph nodes; assay: Measureable tumor mass before and 24 h after peptide; format: in vivo, dog; conditions: 24 hours after NBD peptide; measurements available for 10 treated dogs
Protocol: (§3) Tumor burden was calculated by measuring three dimensions (length, width and height) for each malignant lymph node. The mass of each node was calculated as previously described and the sum of measured lymph node mass was considered as total tumor mass. Response to NBD peptide was evaluated according to the Veterinary Cooperative Oncology Group criteria for assessment of response in peripheral nodal lymphoma, adapted for use in dogs from the published RECIST criteria. The Veterinary Cooperative Oncology Group Common Terminology for Adverse Events, version 1.0 was used to grade adverse events.

[8] = test system: dogs with spontaneous ABC-like DLBCL; assay: Phase I 3+3 dose escalation: adverse events and toxicity (VCOG-CTCAE); format: in vivo, dog
Excerpt: The clinical trial protocol was fully approved by the University of Pennsylvania's Institutional Animal Care and Use Committee (Privately Owned Animal Protocol number: 803765). Only dogs with full written informed owner consent were eligible for enrollment. […] The histopathological diagnosis of DLBCL and cytological confirmation of large B cell lymphoma were made by board certified veterinary pathologists (M.G., and A.D., see acknowledgements) and by a board certified clinical pathologist (R.P.) respectively. Only dogs with DLBCL and constitutive NF-κB activity within their malignant lymph nodes as determined by the presence of phospho-IKK, phospho-IκBα and phospho-p65 were eligible to receive NBD peptide.
as §3

[9] = test system: NF-κB target genes (A1, c-FLIP, XIAP, Bcl-XL, Bcl-2 and A20); assay: qRT-PCR of pro-survival NF-κB target genes in malignant lymph nodes; format: in vivo, dog
Protocol: as §2

[10] = test system: dogs with spontaneous ABC-like DLBCL; assay: Clinical response and survival after NBD peptide plus chemotherapy; format: in vivo, dog
Protocol: as §3

[11] = Hematological and biochemical parameters before and one week after treatment; format: in vivo, dog
Protocol: In this phase I dose escalation clinical trial, both treatment-naïve and relapsed dogs were enrolled. NBD peptide was administered according to a standard 3+3 trial design. […] Peptide was reconstituted to 50 mM in sterile DMSO and diluted in 20 mls of lactated Ringers solution immediately prior to intravenous administration at a constant rate of 20 ml/hr. […] Following the post-treatment biopsy, dogs received induction or rescue chemotherapy as determined by their primary attending veterinary oncologist and a short course of prophylactic antibiotics (amoxicillin). All dogs received a follow-up full clinical examination, CBC, CS and urinalysis one week post NBD peptide.

[12] = test system: primary malignant canine B cells; conditions: in vitro, cited from earlier work
Excerpt: (§4) Pet dogs that develop Non-Hodgkins Lymphoma (NHL) are recognized as a clinically relevant, spontaneous large animal model of the human disease, [27]–[31]. […] Furthermore, tissue microarrays from lymphomatous canine tissue confirmed the presence of constitutive NF-κB activity and pharmacological inhibition of IKK leads to in ...

[13] = test system: malignant node; conditions: local, intranodal administration; cited from earlier work
Excerpt: as §4

[14] = one week after NBD peptide plus induction or rescue chemotherapy

NEMO Binding Domain (NBD) peptide [NBD peptide]
plasma concentrations of NBD peptide at the doses studied ([1]; 0.5-2.0 mg/kg i.v.): very low | NBD peptide in plasma after 60 mins ([1]; any dog, sampling up to 24 hours post infusion, LLOQ 10 or 20 ng/ml): not detected; also recorded: undetectable | tolerability of systemic administration [2]: well tolerated | dogs with a trend towards an increase in apoptosis (TUNEL) [3]: Five | dogs showing reductions in the phosphorylation status of IKK (pIKK:IKK) [4]: 6/10 and Six out of ten | dogs with a statistically significant reduction in the number of Ki67+ cells [5]: Four | dogs with a decrease in the expression of Cyclin D1 [6]: Eight out of eleven | dogs with greater than 20% reduction in measureable tumor mass [7]: Five out of 10 | acute or chronic toxicities at any dose evaluated ([8]; 0.5-2.0 mg/kg single i.v. dose, clinical, hematological and biochemical parameters): no significant acute or chronic toxicities | safety of intravenous administration ([8]; <2 mg/kg i.v.): safe | dogs that became drowsy and developed moderate tachycardia and hypertension during infusion ([8]; Group 1, 0.5 mg/kg i.v., three dogs, no premedication, mild, transient, resolved when infusion was discontinued): two | additional dogs with transient hypertension ([8]; Group 2, 1 mg/kg i.v., premedicated with ondansetron and diphenhydramine): one | maximum tolerated dose of NBD peptide in dogs ([8]; doses 0.5-2.0 mg/kg i.v.): not reached | inhibition of NF-κB target genes in the one dog that received 2 mg/kg (dog 11) ([9]; 2 mg/kg i.v., 24 hours after peptide, compared with the other dogs): most significant inhibition | dogs in which the expression of 3 or more target genes was reduced ([9]; 24 hours after NBD peptide, six genes evaluated): 6 out of 11 | dogs that achieved clinical remission (CR) ([10]; NBD peptide plus chemotherapy, eleven dogs, including 5 dogs treated at first relapse): Seven | dogs that survived greater than 16 months ([10]; after peptide administration and chemotherapy): three | dogs with significant but asymptomatic increases in liver values (ALT, ALKP, AST and GGT) one week later ([11]; Group 2, 1 mg/kg, dog also received L'asparaginase 24 hrs after peptide, values returned to baseline two weeks later): One | dogs with elevated ALKP prior to peptide that showed further increases in ALKP post treatment ([11]; all previously treated for relapsed lymphoma, one week after NBD peptide plus chemotherapy): 4/11 | dogs with an increase in platelet count [11, 14]: 8/11 | dogs with mild decreases in lymphocyte counts [11, 14]: 9/11 | dogs with mild decreases in hematocrit ([11]; one week after NBD peptide plus induction or rescue chemotherapy, most values within the normal range): 9/11 | effect on cell survival ([12]; NBD peptide fused to AntP): rapid apoptosis | effect on phosphorylation of IKK and IκBα ([12]; NBD peptide fused to the cell penetrating Antennapedia peptide (AntP)): inhibits phosphorylation | effect on tumor burden [13]: decreases tumor burden
